In brackets after ≈: the same amount, converted by molar mass.
Tests used:
[1] = solubility in aqueous media; assay type: physicochemical
[2] = tested on: mouse neuro-2a neuroblastoma cells; settings: cytotoxicity; cited from earlier work
[3] = tested on: M21 melanoma cells; test: XTT cell proliferation assay; assay type: cell-based; settings: Homo sapiens, anti-proliferative effect, FIG. 6
Description: (§1) Cytotoxicity Assay. Cytotoxicity of ScA was assessed using the XTT cell proliferation assay. Briefly cells were plated on 96 well plates (5,000 per well) and incubated over night at 37° C. to allow for attachment and spreading. After 24 h, ScA was added from a DMSO stock, previously frozen at −80C as added directly from serial dilutions in DMSO at concentrations ranging from 100 uM to 100 fM. After 72 h, XTT (Aldrich Chemicals) was added to a final concentration of 250 ug/well. The plates were then incubated under standard tissue culture conditions until the control wells (DMSO) reached an OD value between 1.0-1.5. as measured at 450 nm using a microtiter plate reader. The cell viability-drug dilution profiles were obtained from sigma plots, and drug concentrations which inhibited growth by 50% were calculated from multiple runs. (IC50)

[4] = tested on: PC3 prostate cancer cells; test: XTT cell proliferation assay; assay type: cell-based; settings: Homo sapiens; anti-proliferative effect, FIG. 6
Description: as §1

[5] = tested on: TJK304 cells; test: XTT cell proliferation assay; assay type: cell-based; settings: anti-proliferative effect, FIG. 6
Description: as §1

[6] = tested on: pancreatic metastatic mouse carcinoma cells; test: XTT cell proliferation assay; assay type: cell-based; settings: anti-proliferative effect, FIG. 6
Description: as §1

[7] = tested on: Molt-4 T cell leukemia cells; test: XTT cell proliferation assay; assay type: cell-based; settings: Homo sapiens, anti-proliferative effect, FIG. 6
Description: as §1

[8] = tested on: Transgenic Tg(fli1:EGFP) zebrafish embryos; test: blood vessel formation in zebrafish; assay type: in vivo; settings: for blood vessel growth and angiogenesis: 80 nM to 3 μM in the water, dose-dependent; for viability / acute toxicity to the fish: 24 hour period of the study
Description: Zebrafish Experiments. Blood vessel formation in Zebrafish: Transgenic Tg(fli1:EGFP) zebrafish embryos were purchased from www.zfin.org as reported elsewhere (34). Adult fish and embryos were maintained according to “Zebrafish—A Practical Approach” (35). ScA compound in DMSO stock solution was diluted directly into the water and zebrafish intersegmental vessels were imaged using Nikon c1-si confocal microscope after the times specified. Raw image datasets were processed using IMARIS 3D™ image analysis software. All animal procedures were conducted in accordance with all appropriate regulatory standards under protocol #S06008 approved by the University of California San Diego (UCSD) Institutional Animal Care and Use Committee.

[9] = tested on: A-549 lung cancer cells; test: XTT cell proliferation / viability assay; assay type: cell-based, human; settings: for IC50: Homo sapiens
Description: (§2) Cell lines. Cells and cell lines were maintained in either DMEM or RPMI supplemented with 10% FCS. The caspase-deficient NB7 neuroblastoma cells have been previously described (33). C8-deficient and reconstituted jurkat cells were provided by Dr. Steve Hedrick (UCSD). Silencing of Caspase-8 gene expression in the A549 cells was performed through the use of delivering shRNA in a lentiviral format. Briefly 293 T cells were transfected with caspase-8, (Open Biosystems) or scrambled (Addgene) shRNAs in pLK0.1 lentiviral vector, together with lentiviral packaging plasmids (PMLDL, VSV-G and RSV-REV) using fugene6. The ratio of target ShRNAs and packaging plasmids was ShRNA/PMLDL/VSV-G/RSV-REV, 10/10/6/4 μg. Lentiviral supernatants from 293 T cells were harvested after 48 hours and used to infect A549 cells. Viral constructs were incubated for 24 h with A549 cell lines prior to replacing media with selective media containing puromycin (1 μg/ml). The suppression of caspase-8 was verified by western blot.
as §1

[10] = partition from liquid phase into 100 nanometer liposomes (nanosomes); assay type: physicochemical
Description: Preparation of Liposomes. Cholesterol:Dope:Dspc:Sca:Dspe-Mpeg (in 1:1:1:0.16:0.16 molar ratio) in chloroform were taken in 30 mL glass culture tubes, dried under a stream of nitrogen gas and vacuum-dessicated for a minimum of 6 h to remove any residual organic solvent. The dried lipid film was hydrated in sterile deionized water in a total volume of 1 mL for a minimum of 12 h. Liposomes were vortexed for 2-3 minutes to remove any adhering lipid film and sonicated in a bath sonicator (ULTRASONIK 28X™) for 2-3 minutes at room temperature to produce multilamellar vesicles (MLV). MLVs were then sonicated with a Ti-probe (using a BRANSON450™ sonifier at 100% duty cycle and 25 W output power) in an ice bath for 1-2 minutes to produce small unilamellar vesicles (SUVs) as indicated by the formation of a clear translucent solution. The solution was pressure filtered in sequence though 200 and then 100 nm nucelopore polycarbonate membranes to obtain liposome nanoparticles of 100 nm with a polydispersity factor of less than 0.1.

[11] = tested on: chick chorioallantoic membrane; test: bFGF-induced angiogenesis in chick chorioallantoic membrane; assay type: in vivo; settings: local introduction, 100 ng bFGF disks, 72 hours
Description: FIG. 31(A-F): Transgenic Tg(fli1:EGFP) zebrafish embryos in which GFP is expressed in endothelial cells were incubated without (A) or with increasing concentrations of ScA: 80 nM in FIG. 31(B), 160 nM in FIG. 31(C), 300 nM in FIG. 31(D) 1.6 μM in FIG. 31(E) or 3 μM in FIG. 31(F), and blood vessel morphology recorded by fluorescence microscopy. FIG. 31(G) Filter disks impregnated with 100 ng of bFGF were placed on the chorioallantoic membrane of eleven day old chicks to induce angiogenesis in the absence or presence of ScA, as shown. After 72 hours (h), disks were removed and the vascularity of the underlying chorioallantoic membrane determined by direct counting of branch points using a dissecting microscope. FIG. 31(H): NB7 neuroblastoma cells lacking caspase 8 (filled bar) or NB7-C8 cells reconstituted for caspase 8 expression (open bars) were seeded into ten day old chick chorioallantoic membranes to form tumors. After 72 hours, ScA was added topically to each growing tumor mass. Tumors were harvested and resected on day 8, and mass (wet weight) determined. Data shown is the mean±SD (N=8-12).
Chick Chorioallantoic membrane studies. The CAM studies were performed using 10 day old chick embryos as we've previously described (36). […]

[12] = tested on: NB7 neuroblastoma cells; test: XTT cell proliferation assay; assay type: cell-based; settings: Homo sapiens, anti-proliferative effect, FIG. 6, caspase 8 deficient
Description: as §2, with “The suppression of caspase-8 was verified by western blot.” left out
(§3) Cytotoxicity Assay. Cytotoxicity of ScA was assessed using the XTT cell proliferation assay. […] The plates were then incubated under standard tissue culture conditions until the control wells (DMSO) reached an OD value between 1.0-1.5. as measured at 450 nm using a microtiter plate reader. The cell viability-drug dilution profiles were obtained from sigma plots, and drug concentrations which inhibited growth by 50% were calculated from multiple runs. […]

[13] = chemical stability; assay type: physicochemical
[14] = tested on: NB7 caspase 8 positive cells; test: XTT cell proliferation assay; assay type: cell-based, human
Description: as §2, with “The suppression of caspase-8 was verified by western blot.” left out
as §3

In the case of C=CC/C=C/N(C)C(=O)CCCCCCCC/C=C/[C@H](CSSC[C@@H](/C=C/CCCCCCCCC(=O)N(C)/C=C/CC=C)NC(C)=O)NC(C)=O [somocystinamide A, Somocystinamide A], the solubility [1] is given as “limited solubility”, the IC50 [2] is given as 1.4 µg/mL (≈ 1.84 µM) and the IC50 [3] is given as 1280 nM. The IC50 [4] was 970 nM, the IC50 [5] was 830 nM and the IC50 [6] was 8 nM. For the same compound, the IC50 [7] was 600 nM, the “blood vessel growth and angiogenesis” value [8] was “potently inhibited angiogenesis” and the “blood vessel growth and angiogenesis” value ([8]; listed as ScA) was “blocked blood vessel growth and angiogenesis”. For the same compound, the “viability / acute toxicity to the fish” value [8] was “without acute toxicity”, the “viability / acute toxicity to the fish” value ([8]; listed as ScA) was “all of the fish remained viable” and the IC50 ([9]; A549, anti-proliferative effect, FIG. 6) was 46 nM. For the same compound, the IC50 ([9]; A549, percent cell viability, FIG. 16) was 114 nM, the “pro-apoptotic response induced by scA” value ([9]; lentivirus shRNA silencing of caspase 8 or caspase 3, FIG. 24) was “attenuate the pro-apoptotic response” and the “loss in sensitivity to ScA” value ([9]; shRNA knockdown of caspase 8, FIG. 28E) was “five-fold”. For the same compound, the “interchelation of ScA within the nanosomes” value [10] was “essentially complete within thirty minutes”, the growth factor-induced angiogenesis [11] was “potently blocked growth factor-induced angiogenesis” and the IC50 [12] was 810 nM. For the same compound, the storage stability ([13]; apart from hydrolytic degradation of the unsaturated amide) was “otherwise quite stable”, the acid sensitivity ([13]; converts to compound 2) was “highly acid-sensitive” and the IC50 ([14]; Homo sapiens, anti-proliferative effect, FIG. 6) was 12 nM. The “sensitivity of the caspase 8 positive cells to ScA” value ([14]; relative to NB7 cells) was 100 times.
